≈ marks a conversion by molar mass, not a printed value.
Tests used:
[1] = tested on: L. donovani intramacrophage amastigotes; experiment: L. donovani intramacrophage assay (amastigotes in differentiated THP-1 cells); format: cell-based, Leishmania donovani; conditions: Leishmania donovani; L. donovani amastigotes in differentiated THP-1 cells; read-out: Intramacrophage EC50
Experimental: T. cruzi4, Leishmania donovani axenic amastigote, cidal axenic amastigote and intra-
macrophage drug sensitivity assays were conducted as previously described5,6. […]
5. Intrinsic clearance (CLint) […]
6. Pharmacokinetic studies. […]

THP-1 cells = experiment: Mammalian cell growth inhibition (THP-1); format: cell-based; conditions: Homo sapiens
Description: We hypothesized that, in view of their structural similarity, 1 and 2 probably shared the same mechanism of action.

[2] = Intrinsic clearance in mouse liver microsomes; format: in vitro ADME
Experimental: page 13: 4. Parasite assays T. cruzi4, Leishmania donovani axenic amastigote, cidal axenic amastigote and intra- macrophage drug sensitivity assays were conducted as previously described5,6. a. […] Instead of a single readout at 72 h, multiple identical plates were used and read at different time points (24, 48, 72 h). Rate of kill curves showing the luminescence signal at each time point for each concentration were plotted. 5. […] The rate of intrinsic clearance (CLint) of each test compound was then calculated using the following calculation: CLint(mL/min/g liver) = k x V x Microsomal protein yield Where V (mL/mg protein) is the incubation volume/mg protein added and microsomal protein yield is taken as 52.5 mg protein/g liver. Verapamil (0.5 μM) was used as a positive control to confirm acceptable assay performance. 6. Pharmacokinetic studies. a. Mouse and dog PK Mouse pharmacokinetic studies were conducted in male CD-1 mice and male beagle dogs. 3 animals per group were used for each study performed. A dose of 3 mg/kg was administered intravenously, in a bolus form to mice and infused over a 30 min period to dogs. For all the intravenous studies compound were dissolved in 5% DMSO/20% kleptose in saline. A dose of 10 mg/kg was orally administered by gavage to the two species in a suspension of 1% methylcellulose to investigate oral pharmacokinetics. S13

[3] = tested on: L. donovani promastigotes; experiment: microbe, parasite or virus in culture; format: cell-based, Leishmania donovani
Experimental: 9. Mode of action studies a. Cell lines and culture conditions […]
c. Generation of drug-resistant parasites […]
donovani in the continuous presence of this compound. Starting at a sub-lethal […]
After a total of 120 days in
Genomic DNA was harvested from three independently generated L. donovani resistant clones and an age match control, as previously described27. PCR was performed using Platinum PCR Supermix (Invitrogen), as per manufacturer’s […]
generated using primers SubunitB4FW and SubunitB4RV, then sequenced using primer SubunitB4FW (Table S6). To sequence the β5 subunit (LdBPK_361730.1), an […]
sequenced using primer SubunitB5FW. PCR amplification and DNA sequencing were performed in triplicate for each independently generated cell line. The Leishmania donovani BPK282A1 sequences of the two subunits were identified in TriTrypDB and […]
e. Generation of overexpression constructs and LdBOB transgenic cell lines The genes encoding the mutated versions of the β4 (LdBPK_360340.1) and the β5 […]
parasites, were synthesised (GeneArt, Thermo Fischer Scientific). The synthetic genes, flanked by BamHI sites were cloned into the equivalent site of pIR1-SAT. The accuracy of all assembled constructs was verified by sequencing.
Mid-log-phase L. donovani promastigotes (LdBOB) were transfected with overexpression constructs using the Human T-Cell Nucleofector kit and the Amaxa Nucleofector electroporator (program V-033). Following transfection, cells were […]
to appropriate drug selection (100 µg/mL nourseothricin). Cloned cell lines were […]
selection for one passage prior to experiments. […]

[4] = CAD (charged aerosol detector) solubility
[5] = Solubility in fasted simulated intestinal fluid (FaSSIF); conditions: fasted simulated intestinal fluid (FaSSIF), fassif
[6] = tested on: L. donovani axenic amastigotes; experiment: Axenic amastigote rate-of-kill assay; format: cell-based, Leishmania donovani
Experimental: T. cruzi4, Leishmania donovani axenic amastigote, cidal axenic amastigote and intra-macrophage drug sensitivity assays were conducted as previously described5,6.
The rate of kill of compound 8 was determined in axenic amastigotes using the previously described cidal axenic assay5, with one minor modification. Instead of a single readout at 72 h, multiple identical plates were used and read at different time points (24, 48, 72 h). Rate of kill curves showing the luminescence signal at each time point for each concentration were plotted.
5. Intrinsic clearance (CLint)
Test compound (0.5 µM) was incubated with female CD1 mouse liver microsomes (Xenotech LLC TM; 0.5 mg/mL 50 mM potassium phosphate buffer, pH7.4) and the reaction started with addition of excess NADPH (8 mg/mL 50 mM potassium phosphate buffer, pH7.4). Immediately, at time zero, then at 3, 6, 9, 15 and 30 minutes an aliquot (50 µL) of the incubation mixture was removed and mixed with acetonitrile (100 µL) to stop the reaction. […]
XLfit (idbs, UK) was used to calculate the exponential decay and consequently the rate constant (k) from the ratio of peak area of test compound to internal standard at each time-point. The rate of intrinsic clearance (CLint) of each test compound was then calculated using the following calculation: […]
Amastigote levels (as RLU, relative luminescence units) for each tested concentration plotted against time. […]

[7] = biological target: chymotrypsin-like activity of the L. donovani proteasome (Leishmania donovani, UniProt A0A3S7XA80+A0ACM8QMP6); experiment: biochemical
[8] = biological target: chymotrypsin-like activity of the L. donovani proteasome (Leishmania donovani, UniProt A0A3S7XA80+A0ACM8QMP6, G197C/T30A); experiment: biochemical
[9] = Leishmania donovani, RES II-resistant cells
[10] = Leishmania donovani, WT promastigotes

Row | Compound | EC50 [1] | EC50 (THP-1 cells) | CLint [2] | EC50 [3, 9] | EC50 [3, 10] | EC50 ([3]; Leishmania donovani, WT, overexpression experiment (Fig. 3D)) | EC50 ([3]; Leishmania donovani, β4MUT cells (overexpressing β4 T30A)) | EC50 ([3]; Leishmania donovani, β5MUT cells (overexpressing β5 G197C)) | resistance of compound 7-resistant clones ([3]; resistant clones vs WT) | reduction of susceptibility on overexpression of mutated β5 subunit ([3]; β5 G197C overexpression vs WT) | solubility [4] | solubility [5] | CLint (intrinsic clearance when incubated with mouse liver microsomes) [2] | minimum concentration inducing parasite cell death ([6]; after 72 h) | time to kill ([6]; as compound concentrations were increased) | EC50 ([3]; WT promastigotes) | IC50 [7] | IC50 [8]
1 | O=C(Nc1ccc(F)c(-c2cn3nc(-c4ccccc4)cnc3n2)c1)N1CCCC1 [Compound 7] | 350 nM | > 50000 nM | 1.7 mL/min/g | > 1000 nM | 3.5 ± 0.09 nM | 9.4 ± 0.14 nM | 11.2 ± 0.2 nM | 37.6 ± 0.6 nM | > 100 fold | fourfold | 7 µg/mL (≈ 17.4 µM) | 1 µg/mL (≈ 2.48 µM) |  |  |  |  |  | 
2 | O=C(Nc1ccc(F)c(-c2ccn3c(N4CCOCC4)cnc3n2)c1)N1CCCC1 [Compound 8] | 1600 nM | > 50000 nM | 0.77 mL/min/g | > 1000 nM | 14.6 ± 0.3 nM |  |  |  |  |  | 231 µg/mL (≈ 563 µM) | 180 µg/mL (≈ 439 µM) | 0.8 mL/min per gram | 620 nM | 48 h | 14 nM | 160 ± 10 nM | > 100000 nM
